Source: patent publication US20100210722A1, “COMPOSITION FOR PREVENTING OR TREATING LIPID METABOLIC DISORDERS COMPRISING FUCOXANTHIN OR MARINE PLANT EXTRACT CONTAINING SAME” (AMICOGEN, INC., priority 2007, published 2010)
Marks after values point to notes of the source that are not given here.

Tests used:
Format in all cases: in vivo, C57BL/6N/CriBgi mice
[1] = test system: lipoprotein lipase (LPL) mRNA; assay: Expression of mRNA for LPL in liver tissue (real-time PCR)
[2] = test system: malic enzyme (ME); assay: ME activity in liver tissue; conditions: high fat diet, 6 weeks
Description: (§1) Test diets were as follows: “normal diet group”=AIN-76 semisynthetic diet of Teklad (Madison, Wl, USA); “high fat diet group”=normal diet+10% of corn oil and 10% of lard; “test group I”=high fat diet+fucoxanthin extract of Example 1 (fucoxanthin content=0.05%); “test group II”=high fat diet+fucoxanthin extract of Example 1 (fucoxanthin content=0.2%); “test group III”=high fat diet+fucoxanthin extract of Example 2 (fucoxanthin content=0.05%); “test group IV”=high fat diet+fucoxanthin extract of Example 2 (fucoxanthin content=0.2%). The 6 diets (normal diet, high fat diet, and test I, II, III and IV) were given to the animals for 6 weeks. Diet intake was recorded every day, and body weight was measured once a week.
(§2) The supernatant was centrifuged again at 12,000×g for 15 minutes. Then, the supernatant was subjected to high-speed centrifuging (Beckman, Optima TLX-120, USA) at 100,000×g for 1 hour. Then, change of the activity of enzymes involved in the synthesis of fatty acid—fatty acid synthase (FAS), glucose-6-phosphate dehydrogenase (G6PD) and malic enzyme (ME)—was measured.
The ME enzyme is also an enzyme that supplied reducing energy required for the synthesis of fatty acid. […] ME activity was determined as follows. […] After 2 minutes of reaction at 27° C., absorbance was measured at 340 nm. ME activity was calculated as nmol of NADPH produced per 1 mg of protein in cell per minute.

[3] = test system: β-oxidase mRNA; assay: Expression of mRNA for β-oxidation in adipose tissue (real-time PCR); conditions: normal diet = 1.00, GAPDH internal marker
Description: as §1
5 mL of Trizol was added to 0.5 g of white adipose tissue. After pulverizing in liquid nitrogen using a mortar, the tissue was added to 1 mL of chloroform. […] The isolated RNA was diluted and absorbance was measured at 260 nm using a UV spectrometer. […]
Thus prepared cDNA was […] 10-fold, and primers for analyzing the expression of the respective genes (CPT, β-oxidation, FAS, ME and G6PD) were obtained from Genotech (Daejeon, Korea). […] Fluorescence signals were monitored for each cycle and threshold cycle (Cr) was analyzed for quantitative analysis of mRNA for the test groups (Applied Biosystems, SDS7000) (Livak, 2001). […]

[4] = test system: glucose-6-phosphate dehydrogenase (G6PD); assay: G6PD activity in adipose tissue; conditions: high fat diet, 6 weeks
Description: as §1, §2
The G6PD enzyme is an enzyme that supplied reducing energy required for the synthesis of fatty acid. […] G6PD activity was measured at 340 nm by the degree of reduction of NADP^+ to NADPH by G6PD. […] G6PD activity was calculated as nmol of NADPH produced per 1 mg of protein in cell per minute.

[5] = test system: carnitine palmitoyltransferase (CPT); assay: CPT activity (mitochondrial fraction); conditions: high fat diet, 6 weeks
Description: as §1
CPT is an enzyme involved in the oxidation of fatty acid and may be used as an index for the degree of oxidation of fatty acid. CPT activity was calculated from the measurement of CoASH produced from palmitoyl-CoA using 5,5-dithiobis-(2-nitrobenzoic acid) (DTNB). Specifically, 50 μL of mitochondrial fraction was added to a reaction solution containing 116 mM Tris-HCl (pH 8.0), 1.1 mM EDTA, 2.50 mM 1-carnitine, 0.5 mM DTNB, […] palmitoyl-CoA and 0.2% Triton X-100 to initiate reaction. Then, change of absorbance was measured at 25° C. and 412 nm for 2 minutes.

[6] = test system: ME mRNA; assay: Expression of mRNA for ME in liver tissue (real-time PCR)
[7] = normal diet = 1.00, fucoxanthin content 0.05% (Test I/III)
[8] = normal diet = 1.00, fucoxanthin content 0.2% (Test II/IV)
[9] = fucoxanthin content 0.05% (Test I/III)
[10] = fucoxanthin content 0.2% (Test II/IV)

In the case of `CC(=O)O[C@H]1CC(C)(C)C(=C=C/C(C)=C/C=C/C(C)=C/C=C/C=C(C)/C=C/C=C(\C)C(=O)C[C@@]23O[C@]2(C)C[C@@H](O)CC3(C)C)[C@](C)(O)C1` [highly pure fucoxanthin, Fucoxanthin], the “Expression of mRNA, LPL” value [1, 7] is reported as 2.11 ± 0.09^b, the “Expression of mRNA, LPL” value [1, 8] is reported as 1.20 ± 0.14^a and the ME activity [2, 9] is reported as 77.06 ± 7.08^a mmol/min/mg protein. The ME activity [2, 10] was 73.91 ± 6.37^a mmol/min/mg protein, the “Expression of mRNA, β-Oxidation” value [3, 9] was 1.41 ± 0.50^b and the “Expression of mRNA, β-Oxidation” value [3, 10] was 1.26 ± 0.24^b. The G6PD activity [4, 9] was 1.25 ± 0.27^a mmol/min/mg protein, the G6PD activity [4, 10] was 1.27 ± 0.15^a mmol/min/mg protein and the CPT activity [5, 9] was 13.36 ± 1.66^ab mmol/min/mg protein. For the same compound, the CPT activity [5, 10] was 40.30 ± 12.10^c mmol/min/mg protein, the “Expression of mRNA, ME” value [6, 7] was 0.84 ± 0.08^bc and the “Expression of mRNA, ME” value [6, 8] was 0.53 ± 0.03^a.
